Consider 26 compounds from patent publication US8680275B2, “Fused heterocyclic compounds as orexin receptor modulators” (Janssen Pharmaceutica NV, priority 2009, dated 2014).

For one experiment, the target named is human orexin-2 receptor (Homo sapiens (Human), UniProt O43614). Description: Human orexin 2 receptor radioligand binding ([3H]-EMPA competition). As to conditions: HEK293 cells stably expressing human orexin-2 receptor; [3H]-EMPA 5 nM final; read-out: OR-2 Ki. In short, it runs like this:
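Competition binding on HEK293 cells stably expressing human orexin-2 receptor, using 5 nM final [3H]-EMPA in PBS, compounds 0.1 nM to 10 μM (DMSO ≤0.1%). 60 min at room temperature, then filtration and scintillation counting; nonspecific binding defined with 10 μM of a reference antagonist.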

For a further experiment, the target named is human orexin 1 receptor (Homo sapiens (Human), UniProt O43613). Description: Human orexin 1 receptor radioligand binding ([3H]-SB674042 competition). As to conditions: read-out: OR-1 Ki. An outline of the steps: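 CHO cells stably expressing human OX1R incubated 60 min at room temperature with [3H]-SB674042 and compounds (7 concentrations, 0.1 nM–10 μM; DMSO ≤0.1%) in PBS. Nonspecific binding defined with 10 μM of a reference urea antagonist; bound radioactivity measured by filtration and scintillation counting.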

[1] abbreviates: CHO cells stably expressing human orexin 1 receptor, [3H]-SB674042 4 nM final.

SMILES strings stand for the structures. Read-outs that look alike come from different tables or passages of the source.

Chain of human orexin-2 receptor (O43614 whole entry): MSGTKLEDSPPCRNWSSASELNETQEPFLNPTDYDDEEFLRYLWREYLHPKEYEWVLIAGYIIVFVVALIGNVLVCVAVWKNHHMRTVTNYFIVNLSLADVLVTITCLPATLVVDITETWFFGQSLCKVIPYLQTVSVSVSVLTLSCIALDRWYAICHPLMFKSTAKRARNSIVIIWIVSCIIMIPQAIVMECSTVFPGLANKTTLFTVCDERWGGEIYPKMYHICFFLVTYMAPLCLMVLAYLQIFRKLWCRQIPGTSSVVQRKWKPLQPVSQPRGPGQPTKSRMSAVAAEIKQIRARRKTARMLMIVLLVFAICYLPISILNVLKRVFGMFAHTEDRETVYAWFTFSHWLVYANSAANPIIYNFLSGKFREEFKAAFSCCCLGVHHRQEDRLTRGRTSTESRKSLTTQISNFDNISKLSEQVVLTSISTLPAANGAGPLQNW
Chain of human orexin 1 receptor (O43613 whole entry): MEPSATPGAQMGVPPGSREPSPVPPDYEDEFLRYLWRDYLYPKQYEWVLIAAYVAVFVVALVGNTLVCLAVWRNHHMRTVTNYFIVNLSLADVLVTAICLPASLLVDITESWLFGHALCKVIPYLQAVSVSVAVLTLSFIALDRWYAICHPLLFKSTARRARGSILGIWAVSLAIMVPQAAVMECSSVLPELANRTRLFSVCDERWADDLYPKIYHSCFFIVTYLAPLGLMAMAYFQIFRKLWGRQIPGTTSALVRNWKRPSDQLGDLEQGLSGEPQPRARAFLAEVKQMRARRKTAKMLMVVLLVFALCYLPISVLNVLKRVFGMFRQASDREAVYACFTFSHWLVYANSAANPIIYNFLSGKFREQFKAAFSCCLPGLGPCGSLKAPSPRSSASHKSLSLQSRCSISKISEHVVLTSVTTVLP

By Ki is commonly meant the equilibrium dissociation constant of an inhibitor or competing ligand from its target. Regarding `O=C(c1ccccc1-c1cccs1)N1CC2CN(c3nccc(-c4ccccc4)n3)C2C1` (stereo not shown) [Example 50, 6-(4-Phenylpyrimidin-2-yl)-3-[(2-thiophen-2-ylphenyl)carbonyl]-3,6-diazabicyclo[3.2.0]heptane], the Ki on human orexin-2 receptor worked out at 94 nM; at human orexin 1 receptor (setting [1]), 0.039 µM.

On to `Cc1cc(C)nc(N2C[C@@H]3CCN(C(=O)c4cn[nH]c4-c4ccccc4)C[C@@H]32)n1` [Example 174, (1R,6S)-8-(4,6-Dimethylpyrimidin-2-yl)-3-[(5-phenyl-1H-pyrazol-4-yl)carbonyl]-3,8-diazabicyclo[4.2.0]octane], for which the results for the inhibitory constant (Ki) at human orexin-2 receptor and at human orexin 1 receptor (setting [1]) were 6000 nM and 10 µM, respectively.

With `Cc1ccc(-c2ccccc2C(=O)N2CC[C@H]3CN(c4cnc5ccccc5n4)[C@H]3C2)cc1` [Example 10, (1R,6S)(4′-Methyl-biphenyl-2-yl)-(8-quinoxalin-2-yl-3,8-diaza-bicyclo[4.2.0]oct-3-yl)-methanone], the Ki on human orexin-2 receptor was found to be 44 nM; on human orexin 1 receptor (setting [1]), 0.018 µM.

For `Cc1ccnc(N2CC3CN(C(=O)c4ccccc4-c4cccs4)CC32)n1` (stereo not shown) [Example 60, 6-(4-Methylpyrimidin-2-yl)-3-[(2-thiophen-2-ylphenyl)carbonyl]-3,6-diazabicyclo[3.2.0]heptane], the inhibition constant Ki came to 188 nM at human orexin-2 receptor and 10 µM at human orexin 1 receptor (setting [1]).

Turning to `Cc1cc(C)nc(N2C[C@@H]3CCN(C(=O)c4c(-c5ccccc5)noc4C)C[C@@H]32)n1` [Example 175, (1R,6S)-8-(4,6-Dimethylpyrimidin-2-yl)-3-[(5-methyl-3-phenylisoxazol-4-yl)carbonyl]-3,8-diazabicyclo[4.2.0]octane], the figures for the Ki at human orexin-2 receptor and at human orexin 1 receptor (setting [1]) were 488 nM and 10 µM, respectively.

Regarding `COc1ccc(C(=O)N2CC[C@H]3CN(c4cc(N(C)C)ccn4)[C@H]3C2)c(-n2nccn2)c1` [Example 142, 2-[(1R,6S)-3-{[4-Methoxy-2-(2H-1,2,3-triazol-2-yl)phenyl]carbonyl}-3,8-diazabicyclo[4.2.0]oct-8-yl]-N,N-dimethylpyridin-4-amine], the Ki came to 9000 nM on human orexin-2 receptor and 10 µM at human orexin 1 receptor (setting [1]).

As to `Cc1cc(N2C[C@@H]3CCN(C(=O)c4ccc(C)nc4-n4ccnn4)C[C@@H]32)nc(C(F)(F)F)n1` [Example 91, (1R,6S)-3-{[6-Methyl-2-(1H-1,2,3-triazol-1-yl)pyridin-3-yl]carbonyl}-8-[6-methyl-2-(trifluoromethyl)pyrimidin-4-yl]-3,8-diazabicyclo[4.2.0]octane], the inhibitory constant (Ki) on human orexin-2 receptor was 520 nM; on human orexin 1 receptor (setting [1]), 5.4 µM.

As for `Cc1cc(C)nc(N2C[C@@H]3CCN(C(=O)c4ccccc4-c4cccs4)C[C@@H]32)n1` [Example 1, (1R,6S)[8-(4,6-Dimethyl-pyrimidin-2-yl)-3,8-diaza-bicyclo[4.2.0]oct-3-yl]-(2-thiophen-2-yl-phenyl)-methanone], the Ki on human orexin-2 receptor turned out to be 4 nM; on human orexin 1 receptor (setting [1]), 0.064 µM.

On to `Cc1nccnc1N1C[C@@H]2CCN(C(=O)c3ccc(F)cc3-n3nccn3)C[C@@H]21` [Example 108, (1R,6S)-3-{[4-Fluoro-2-(2H-1,2,3-triazol-2-yl)phenyl]carbonyl}-8-(3-methylpyrazin-2-yl)-3,8-diazabicyclo[4.2.0]octane], for which the Ki on human orexin-2 receptor was found to be 10000 nM; on human orexin 1 receptor (setting [1]) it was 10 µM.

On to `O=C(c1ccccc1-c1ccccc1)N1CC2CN(c3nccc(-c4ccccc4)n3)C2C1` (stereo not shown) [Example 47, 3-(Biphenyl-2-ylcarbonyl)-6-(4-phenylpyrimidin-2-yl)-3,6-diazabicyclo[3.2.0]heptane], for which the values for the inhibitory constant (Ki) at human orexin-2 receptor and at human orexin 1 receptor (setting [1]) were 132 nM and 0.206 µM, respectively.

For `O=C(c1cccc(F)c1-n1nccn1)N1CC[C@H]2CN(c3cc(C(F)(F)F)ccn3)[C@H]2C1` [Example 145, (1R,6S)-3-{[3-Fluoro-2-(2H-1,2,3-triazol-2-yl)phenyl]carbonyl}-8-[4-(trifluoromethyl)pyridin-2-yl]-3,8-diazabicyclo[4.2.0]octane], the Ki on human orexin-2 receptor was determined as 110 nM; on human orexin 1 receptor (setting [1]), 3.3 µM.

On to `Cc1cc(C)nc(N2C[C@@H]3CCN(C(=O)c4cccc(C)c4-n4cccn4)C[C@@H]32)n1` [Example 133, (1R,6S)-8-(4,6-Dimethylpyrimidin-2-yl)-3-{[3-methyl-2-(1H-pyrazol-1-yl)phenyl]carbonyl}-3,8-diazabicyclo[4.2.0]octane], for which the results for the inhibitory constant (Ki) at human orexin-2 receptor and at human orexin 1 receptor (setting [1]) were 36 nM and 0.55 µM, respectively.

As to `CN(C)c1nc(N2C[C@@H]3CCN(C(=O)c4c(F)cccc4-n4nccn4)C[C@@H]32)cc(C(F)(F)F)n1` [Example 37, (1R,6S)-[8-(2-Dimethylamino-6-trifluoromethyl-pyrimidin-4-yl)-3,8-diaza-bicyclo[4.2.0]oct-3-yl]-(2-fluoro-6-[1,2,3]triazol-2-yl-phenyl)-methanone], the Ki at human orexin-2 receptor is 10 nM; on human orexin 1 receptor (setting [1]), 0.019 µM.

Regarding `Cc1cc(C)nc(N2C[C@@H]3CCN(C(=O)c4cnoc4-c4ccccc4)C[C@@H]32)n1` [Example 176, (1R,6S)-8-(4,6-Dimethylpyrimidin-2-yl)-3-[(5-phenylisoxazol-4-yl)carbonyl]-3,8-diazabicyclo[4.2.0]octane], the Ki at human orexin-2 receptor was 1300 nM; on human orexin 1 receptor (setting [1]) it was 10 µM.

For `Cc1cc(N2C[C@@H]3CCN(C(=O)c4c(F)cccc4-n4nccn4)C[C@@H]32)nc(N(C)C)n1` [Example 44, (1R,6S)-[8-(2-Dimethylamino-6-methyl-pyrimidin-4-yl)-3,8-diaza-bicyclo[4.2.0]oct-3-yl]-(2-fluoro-6-[1,2,3]triazol-2-yl-phenyl)-methanone], the inhibitory constant (Ki) on human orexin-2 receptor came out at 73 nM; at human orexin 1 receptor (setting [1]) it was 0.48 µM.

With `O=C(c1ccccc1-c1cccs1)N1CC2CN(c3cnc4ccccc4n3)C2C1` (stereo not shown) [Example 49, 2-{3-[(2-Thiophen-2-ylphenyl)carbonyl]-3,6-diazabicyclo[3.2.0]hept-6-yl}quinoxaline], the values for the inhibition constant Ki on human orexin-2 receptor and at human orexin 1 receptor (setting [1]) were 77 nM and 0.114 µM, respectively.

For `COc1ccc(C(=O)N2CC[C@H]3CN(c4nc(C)cc(C)n4)[C@H]3C2)c(-n2ccnn2)n1` [Example 163, (1R,6S)-8-(4,6-Dimethylpyrimidin-2-yl)-3-{[6-methoxy-2-(1H-1,2,3-triazol-1-yl)pyridin-3-yl]carbonyl}-3,8-diazabicyclo[4.2.0]octane], the Ki is 700 nM on human orexin-2 receptor and 10 µM on human orexin 1 receptor (setting [1]).

In the case of `CNc1nc(C)cc(N2C[C@@H]3CCN(C(=O)c4cc(F)ccc4-n4nccn4)C[C@@H]32)n1` [Example 187, 4-[(1R,6S)-3-{[5-Fluoro-2-(2H-1,2,3-triazol-2-yl)phenyl]carbonyl}-3,8-diazabicyclo[4.2.0]oct-8-yl]-N,6-dimethylpyrimidin-2-amine], the inhibition constant Ki was 310 nM on human orexin-2 receptor and 10 µM on human orexin 1 receptor (setting [1]).

Consider `COc1cccc(OC)c1C(=O)N1CCC2CN(c3nccc(-c4ccccc4)n3)C2C1` (stereo not shown) [Example 15, (2,6-Dimethoxy-phenyl)-[8-(4-phenyl-pyrimidin-2-yl)-3,8-diaza-bicyclo[4.2.0]oct-3-yl]-methanone], for which the Ki at human orexin-2 receptor came out at 257 nM; at human orexin 1 receptor (setting [1]), 0.237 µM.

Turning to `COc1ccc(C(=O)N2CC[C@H]3CN(c4nc(C)cc(C)n4)[C@H]3C2)c(-n2nccn2)n1` [Example 162, (1R,6S)-8-(4,6-Dimethylpyrimidin-2-yl)-3-{[6-methoxy-2-(2H-1,2,3-triazol-2-yl)pyridin-3-yl]carbonyl}-3,8-diazabicyclo[4.2.0]octane], the Ki was found to be 380 nM at human orexin-2 receptor and 10 µM on human orexin 1 receptor (setting [1]).

On to `Cc1ccc(C(=O)N2CC[C@H]3CN(c4nccc(C(F)(F)F)n4)[C@H]3C2)c(-n2ccnn2)n1` [Example 93, (1R,6S)-3-{[6-Methyl-2-(1H-1,2,3-triazol-1-yl)pyridin-3-yl]carbonyl}-8-[4-(trifluoromethyl)pyrimidin-2-yl]-3,8-diazabicyclo[4.2.0]octane], for which the results for the Ki at human orexin-2 receptor and at human orexin 1 receptor (setting [1]) were 230 nM and 3.7 µM, respectively.

Take `COc1ccc(-n2nccn2)c(C(=O)N2CC[C@H]3CN(c4cc(C)cc(C)n4)[C@H]3C2)c1` [Example 151, (1R,6S)-8-(4,6-Dimethylpyridin-2-yl)-3-{[5-methoxy-2-(2H-1,2,3-triazol-2-yl)phenyl]carbonyl}-3,8-diazabicyclo[4.2.0]octane]: the Ki is 17 nM on human orexin-2 receptor and 0.341 µM at human orexin 1 receptor (setting [1]).

In the case of `Cc1cc(C)nc(N2C[C@@H]3CCN(C(=O)c4ccc(C)nc4-n4ccnn4)C[C@@H]32)n1` [Example 88, (1R,6S)-8-(4,6-Dimethylpyrimidin-2-yl)-3-{[6-methyl-2-(1H-1,2,3-triazol-1-yl)pyridin-3-yl]carbonyl}-3,8-diazabicyclo[4.2.0]octane], the Ki on human orexin-2 receptor worked out at 234 nM; at human orexin 1 receptor (setting [1]) it was 8.2 µM.

For `O=C(c1ccccc1-c1ccccc1)N1CCC2CN(c3nc4ccccc4o3)C2C1` (stereo not shown) [Example 11, (8-Benzooxazol-2-yl-3,8-diaza-bicyclo[4.2.0]oct-3-yl)-biphenyl-2-yl-methanone], the Ki was determined as 140 nM on human orexin-2 receptor and 0.143 µM at human orexin 1 receptor (setting [1]).

Take `Cc1cnc(N2C[C@@H]3CCN(C(=O)c4cccc(F)c4-n4nccn4)C[C@@H]32)cn1` [Example 103, (1R,6S)-3-{[3-Fluoro-2-(2H-1,2,3-triazol-2-yl)phenyl]carbonyl}-8-(5-methylpyrazin-2-yl)-3,8-diazabicyclo[4.2.0]octane]: the figures for the Ki at human orexin-2 receptor and on human orexin 1 receptor were 360 nM and 10 µM, respectively.

`Cc1cc(C)nc(N2C[C@@H]3CCN(C(=O)c4cc(F)ccc4-c4ccc(N(C)C)nc4)C[C@@H]32)n1` [Example 166, 5-(2-{[(1R,6S)-8-(4,6-Dimethylpyrimidin-2-yl)-3,8-diazabicyclo[4.2.0]oct-3-yl]carbonyl}-4-fluorophenyl)-N,N-dimethylpyridin-2-amine]: the Ki on human orexin-2 receptor stood at 72 nM; on human orexin 1 receptor (setting [1]), 3.84 µM.
